Results taken from patent US9480676B2, “Use of PDE4 inhibitors and combinations thereof for the treatment of cystic fibrosis” (Celgene Corporation, priority 2014, dated 2016).
Values joined by “and” are separate entries in the source; they are usually repeats but may differ in a detail not shown here. Equal values may be shown once.

Test system: PDE4
Assay: Inhibition of PDE4 (enzyme purified from U937 human monocytic cells)
Type: biochemical
Conditions: 1 μM cAMP plus 10 nM [3H]-cAMP, 45 min at 30° C.
Description: Phosphodiesterase 4 enzyme was purified from U937 human monocytic cells by gel filtration chromatography, and phosphodiesterase reactions were carried out as previously described. See, e.g., Muller et al., Bioorg. Med. Chem. Lett., 1998, 8(19): 2669-2674. Briefly, reactions were carried out in 96-well deep-well plates in 50 mM Tris HCl pH 7.5, 5 mM MgCl2, 1 μM cyclic adenosine monophosphate (cAMP), plus 10 nM [^3H]-cAMP for 45 min at 30° C. The reactions were terminated by boiling, treated with 1 mg/ml snake venom, and separated using AG-1X8 ion exchange resin (BioRad). Reactions consumed less than 15% of available substrate. […] Compound B inhibited PDE4 with an IC50 of 100 nM.

| Compound | IC50 |
| --- | --- |
| CCOc1cc([C@@H](CS(C)(=O)=O)N2C(=O)c3cccc(NC(C)=O)c3C2=O)ccc1OC [Compound A1, (S)—N-(2-(1-(3-ethoxy-4-methoxyphenyl)-2-(methylsulfonyl)ethyl)-1,3-dioxoisoindolin-4-yl)acetamide] | 73.5 nM and ~74 nM |
| CCOc1cc([C@@H](CS(C)(=O)=O)N2Cc3cccc(NC(=O)C4CC4)c3C2=O)ccc1OC [Compound B, (S)—N-(2-(1-(3-ethoxy-4-methoxyphenyl)-2-(methylsulfonyl)ethyl)-3-oxoisoindolin-4-yl)cyclopropanecarboxamide] | 100 nM and ~100 nM |
